Data: ChEMBL document CHEMBL3132761, “Construction of phenoxazine rings containing nitro and sulfonic acid groups leading to phenoxazine-3-sulfonamide derivatives: their evaluation as novel and potential insulin secretagogues” (Medchemcomm, 2014)
Active and inactive are the calls of the source. The rule behind the calls is not given here.

How the values were obtained:
Rattus norvegicus [1] = test: Hypoglycemic activity in over night fasted Wistar albino rat assessed as reduction of blood glucose level at 10 mg/kg, po administered 30 mins before glucose challenge measured after 120 mins by intraperitoneal glucose tolerance test (reference value: 101.07 +/- 8.98 mg/dl); type: functional
Rattus norvegicus [2] = test: Hypoglycemic activity in over night fasted Wistar albino rat assessed as reduction of blood glucose level at 10 mg/kg, po administered 30 mins before glucose challenge measured after 90 mins by intraperitoneal glucose tolerance test (reference value: 94.44 +/- 6.99 mg/dl); type: functional
Rattus norvegicus [3] = test: Hypoglycemic activity in over night fasted Wistar albino rat assessed as reduction of blood glucose level at 10 mg/kg, po administered 30 mins before glucose challenge measured after 60 mins by intraperitoneal glucose tolerance test (reference value: 106.07 +/- 13.98 mg/dl); type: functional
Rattus norvegicus [4] = test: Hypoglycemic activity in over night fasted Wistar albino rat assessed as reduction of blood glucose level at 10 mg/kg, po administered 30 mins before glucose challenge measured after 30 mins by intraperitoneal glucose tolerance test (reference value: 109.28 +/- 20.53 mg/dl); type: functional
Rattus norvegicus [5] = test: Hypoglycemic activity in 18 hrs fasted Wistar albino rat assessed as reduction of blood glucose level at 10 mg/kg, po after 6 hrs (reference value: 101.01 +/- 1.60 mg/dl); type: functional
Rattus norvegicus [6] = test: Hypoglycemic activity in 18 hrs fasted Wistar albino rat assessed as reduction of blood glucose level at 10 mg/kg, po after 4 hrs (reference value: 97.13 +/- 2.89 mg/dl); type: functional
Rattus norvegicus [7] = test: Hypoglycemic activity in 18 hrs fasted Wistar albino rat assessed as reduction of blood glucose level at 10 mg/kg, po after 2 hrs (reference value: 101.03 +/- 1.93 mg/dl); type: functional
Rattus norvegicus [8] = test: Antidiabetic activity in streptozotocin-nicotinamide-induced diabetic model of Wistar albino rat assessed as reduction of blood glucose level at 10 mg/kg, po after 8 hrs relative to control; type: functional
Rattus norvegicus [9] = test: Antidiabetic activity in streptozotocin-nicotinamide-induced diabetic model of Wistar albino rat assessed as reduction of blood glucose level at 10 mg/kg, po after 6 hrs relative to control; type: functional
Rattus norvegicus [10] = test: Antidiabetic activity in streptozotocin-nicotinamide-induced diabetic model of Wistar albino rat assessed as reduction of blood glucose level at 10 mg/kg, po after 4 hrs relative to control; type: functional
Rattus norvegicus [11] = test: Antidiabetic activity in streptozotocin-nicotinamide-induced diabetic model of Wistar albino rat assessed as reduction of blood glucose level at 10 mg/kg, po after 2 hrs relative to control; type: functional
Rattus norvegicus [12] = test: Antidiabetic activity in streptozotocin-nicotinamide-induced diabetic model of Wistar albino rat assessed as reduction of blood glucose level at 10 mg/kg, po after 1 hr relative to control; type: functional
Hepatocyte [13] = test: Cytotoxicity against rat primary hepatocytes after 16 hrs; type: cell-based
Hepatocyte [14] = test: Cytotoxicity against rat primary hepatocytes after 6 hrs; type: cell-based
[15] = target: T1, Peroxisome proliferator-activated receptor gamma (Homo sapiens) (UniProt P37231); test: Agonist activity at human GAL4-fused PPARgamma LBD expressed in HEK293T cells co-expressing DBD at 1 uM by luciferase based transactivation assay relative to control; type: cell-based; conditions: HEK-293T
T1 sequence (whole entry): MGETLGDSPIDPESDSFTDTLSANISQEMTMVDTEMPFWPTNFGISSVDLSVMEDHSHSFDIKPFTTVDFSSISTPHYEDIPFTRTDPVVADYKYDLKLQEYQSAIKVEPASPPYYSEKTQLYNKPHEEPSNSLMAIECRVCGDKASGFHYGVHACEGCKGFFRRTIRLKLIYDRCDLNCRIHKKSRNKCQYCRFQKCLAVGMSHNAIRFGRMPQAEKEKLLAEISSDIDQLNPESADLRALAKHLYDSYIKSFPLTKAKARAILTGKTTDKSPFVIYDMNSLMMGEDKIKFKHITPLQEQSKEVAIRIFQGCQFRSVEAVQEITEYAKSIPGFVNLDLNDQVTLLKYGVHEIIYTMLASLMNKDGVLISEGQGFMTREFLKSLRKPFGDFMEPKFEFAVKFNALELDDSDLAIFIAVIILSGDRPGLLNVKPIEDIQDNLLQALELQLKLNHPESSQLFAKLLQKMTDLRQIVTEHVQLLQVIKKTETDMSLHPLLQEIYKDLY

Rattus norvegicus [16] = test: Antidiabetic activity in streptozotocin-nicotinamide-induced diabetic model of Wistar albino rat assessed as granulated pancreatic islets with prominent hyperplasticity at 10 mg/kg, po administered for 14 days measured on day 14 relative to control; type: functional, organism-based; set-up: dose 10 mg/kg
Rattus norvegicus [17] = test: Antidiabetic activity in Wistar albino rat assessed as reversal of diabetic-induced muscle wasting by measuring increase in body weight at 10 mg/kg, po administered for 14 days measured on day 14 relative to control; type: functional
Rattus norvegicus [18] = test: Antidiabetic activity in Wistar albino rat assessed as reversal of diabetic-induced SGPT level in liver at 10 mg/kg, po administered for 14 days measured on day 14 relative to control; type: functional
Rattus norvegicus [19] = test: Antidiabetic activity in Wistar albino rat assessed as reversal of diabetic-induced SGOT level in liver at 10 mg/kg, po administered for 14 days measured on day 14 relative to control; type: functional
Rattus norvegicus [20] = test: Hypolipidemic activity in Wistar albino rat assessed as reduction of serum triglyceride level at 10 mg/kg, po administered for 14 days measured on day 14 after 1 to 8 hrs relative to control; type: functional
Rattus norvegicus [21] = test: Hypolipidemic activity in Wistar albino rat assessed as reduction of total cholesterol level at 10 mg/kg, po administered for 14 days measured on day 14 after 1 to 8 hrs relative to control; type: functional
Rattus norvegicus [22] = test: Antidiabetic activity in streptozotocin-nicotinamide-induced diabetic model of Wistar albino rat assessed as reduction of blood glucose level at 10 mg/kg, po administered for 14 days measured on day 14 after 1 to 8 hrs relative to control; type: functional
Rattus norvegicus [23] = test: Antidiabetic activity in streptozotocin-nicotinamide-induced diabetic model of Wistar albino rat assessed as reduction of blood glucose level at 10 mg/kg, po administered for 14 days measured on day 7 after 1 to 8 hrs relative to control; type: functional

SMILES	Activity (Rattus norvegicus [1]) [mg/dL]	Activity (Rattus norvegicus [2]) [mg/dL]	Activity (Rattus norvegicus [3]) [mg/dL]	Activity (Rattus norvegicus [4]) [mg/dL]	Activity (Rattus norvegicus [5]) [mg/dL]	Activity (Rattus norvegicus [6]) [mg/dL]	Activity (Rattus norvegicus [7]) [mg/dL]	also measured
O=[N+]([O-])c1cc(S(=O)(=O)NCc2ccco2)cc2c1Nc1ccccc1O2	83.89	80	81.89	115.43	100.76	86.36	96.21	–
CC(C)N(C(C)C)S(=O)(=O)c1cc2c(c([N+](=O)[O-])c1)Nc1ccccc1O2	–	–	–	–	69.44	63.05	67.5	–
Cc1ccccc1NS(=O)(=O)c1cc2c(c([N+](=O)[O-])c1)Nc1ccccc1O2	100	97.32	100.44	123.21	87.93	73.33	52.43	–
O=[N+]([O-])c1cc(S(=O)(=O)Nc2ccc(Br)cc2)cc2c1Nc1ccccc1O2	119.64	137.5	111.4	148.35	89.58	85.42	95.31	Activity (Rattus norvegicus [8]): 172.2 mg/dL; Activity (Rattus norvegicus [9]): 165.6 mg/dL; Activity (Rattus norvegicus [10]): 157.5 mg/dL; Activity (Rattus norvegicus [11]): 145.6 mg/dL; Activity (Rattus norvegicus [12]): 165.8 mg/dL
O=[N+]([O-])c1cc(S(=O)(=O)N2CCCCC2)cc2c1Nc1ccccc1O2	–	–	–	–	78.41	69.35	72.67	–
O=[N+]([O-])c1cc(S(=O)(=O)Nc2ccc(O)cc2)cc2c1Nc1ccccc1O2	98.91	78.1	95.4	102.43	66.14	44.65	46.34	IC50 (Hepatocyte [13]): 274 µM; IC50 (Hepatocyte [14]): 343 µM; fold change (FC) [15]: 15.5; Activity (Rattus norvegicus [16]): Active; Activity (Rattus norvegicus [17]): 242 g; Activity (Rattus norvegicus [18]): 44.8 U/dl; Activity (Rattus norvegicus [19]): 47.2 U/dl; Activity (Rattus norvegicus [20]): 63.2 mg/dL; Activity (Rattus norvegicus [21]): 59.2 mg/dL; Activity (Rattus norvegicus [22]): 145.6 mg/dL; Activity (Rattus norvegicus [23]): 165.8 mg/dL; Activity (Rattus norvegicus [8]): 161.4 mg/dL; Activity (Rattus norvegicus [9]): 143.3 mg/dL; Activity (Rattus norvegicus [10]): 131.4 mg/dL; Activity (Rattus norvegicus [11]): 116.4 mg/dL; Activity (Rattus norvegicus [12]): 158.6 mg/dL
O=[N+]([O-])c1cc(S(=O)(=O)Nc2cccc(F)c2)cc2c1Nc1ccccc1O2	–	–	–	–	93.94	87.88	95.45	–
CC(C)c1ccc(NS(=O)(=O)c2cc3c(c([N+](=O)[O-])c2)Nc2ccccc2O3)cc1	106	98	96.66	124.33	91.74	86.45	74.28	–
CCN(CC)S(=O)(=O)c1cc2c(c([N+](=O)[O-])c1)Nc1ccccc1O2	–	–	–	–	118.75	113.54	122.92	–
O=[N+]([O-])c1cc(S(=O)(=O)NC2CCCCC2)cc2c1Nc1ccccc1O2	–	–	–	–	90.2	85.63	90.22	–
COc1ccc(Cl)cc1C(=O)NCCc1ccc(S(=O)(=O)NC(=O)NC2CCCCC2)cc1 [GLYBURIDE]	91.78	77.5	89	107.85	69.01	63.73	90.2	Activity (Rattus norvegicus [16]): Active; Activity (Rattus norvegicus [17]): 244 g; Activity (Rattus norvegicus [18]): 42 U/dl; Activity (Rattus norvegicus [19]): 45.8 U/dl; Activity (Rattus norvegicus [20]): 61 mg/dL; Activity (Rattus norvegicus [21]): 57.8 mg/dL; Activity (Rattus norvegicus [22]): 88.3 mg/dL; Activity (Rattus norvegicus [23]): 93.3 mg/dL; Activity (Rattus norvegicus [8]): 151.9 mg/dL; Activity (Rattus norvegicus [9]): 127.2 mg/dL; Activity (Rattus norvegicus [10]): 107.5 mg/dL; Activity (Rattus norvegicus [11]): 101.9 mg/dL; Activity (Rattus norvegicus [12]): 147.2 mg/dL
COc1ccc(NS(=O)(=O)c2cc3c(c([N+](=O)[O-])c2)Nc2ccccc2O3)cc1	107.14	91.42	96.07	130.35	74.47	120.31	116.66	–
O=[N+]([O-])c1cc(S(=O)(=O)NCc2cccs2)cc2c1Nc1ccccc1O2	–	–	–	–	84.37	114.06	86.45	–
CCCNS(=O)(=O)c1cc2c(c([N+](=O)[O-])c1)Nc1ccccc1O2	–	–	–	–	98.7	88.7	75.48	–
CN(CCOc1ccc(CC2SC(=O)NC2=O)cc1)c1ccccn1 (stereo not drawn) [ROSIGLITAZONE]	–	–	–	–	–	–	–	IC50 (Hepatocyte [13]): 165 µM; IC50 (Hepatocyte [14]): 225 µM
O=[N+]([O-])c1cc(S(=O)(=O)N2CCOCC2)cc2c1Nc1ccccc1O2	–	–	–	–	65.27	61.56	59.35	–
CC(NS(=O)(=O)c1cc2c(c([N+](=O)[O-])c1)Nc1ccccc1O2)c1ccccc1 (stereo not drawn)	–	–	–	–	94.28	77.74	78.26	–
O=[N+]([O-])c1cc(S(=O)(=O)Nc2ccccc2O)cc2c1Nc1ccccc1O2	–	–	–	–	88.88	85	71.38	–
Cc1ccc(NS(=O)(=O)c2cc3c(c([N+](=O)[O-])c2)Nc2ccccc2O3)c(C)c1	–	–	–	–	85.42	89.88	93.55	–
COc1ccc(CNS(=O)(=O)c2cc3c(c([N+](=O)[O-])c2)Nc2ccccc2O3)cc1	–	–	–	–	85.93	102.08	102.6	–
O=[N+]([O-])c1cc(S(=O)(=O)Nc2ccccc2)cc2c1Nc1ccccc1O2	–	–	–	–	118.22	100	102.6	–
O=[N+]([O-])c1cc(S(=O)(=O)Nc2ccc(Cl)cc2)cc2c1Nc1ccccc1O2	76.9	93.77	106.23	100.36	60.93	91.66	106.25	–
NS(=O)(=O)c1cc2c(c([N+](=O)[O-])c1)Nc1ccccc1O2	122.85	105.72	112.31	124.2	51.04	69.79	65.62	–
